Source: ChEMBL document CHEMBL3351958, “Structure-activity relationships of sugar-based peptidomimetics as modulators of amyloid β-peptide early oligomerization and fibrillization” (Eur J Med Chem, 2014)
The source made the active and inactive calls. The calls are words filed in the database; no cut-off is given here. Numbered stars: 1 amine (or outer) side, 2 acyl side, 3 side chain; on linkers, the order of the positions; unused ones are H or OH. Square brackets hold non-standard residues; d marks the D form. Peptide text beside a SMILES is read from it. * marks the point of attachment. X1 = O=C(CCOC[C@H]1O[C@@H](OCCCN[*:1])[C@H](O)[C@@H](O)[C@@H]1O)[*:2]; X2 = O=C(CCOC[C@H]1O[C@@H](OCCN[*:1])[C@H](O)[C@@H](O)[C@@H]1O)[*:2]; X4 = O=C(CCOC[C@H]1O[C@H](OCCCN[*:1])[C@H](O)[C@@H](O)[C@@H]1O)[*:2]; X3 = O=C(CCOC[C@H]1O[C@H](OCCN[*:1])[C@H](O)[C@@H](O)[C@@H]1O)[*:2]; Boc = CC(C)(C)OC(=O)*

Experiments:
[1] = target: Amyloid-beta precursor protein (Homo sapiens) (UniProt P05067); assay: Inhibition of amyloid beta (1 to 42) (unknown origin) oligomerization assessed as fold change in half-life of aggregation extension/reduction at 1:10 Abeta:compound ratio by thioflavin T assay based fluorescence microscopy
[2] = target: Amyloid-beta precursor protein (Homo sapiens) (UniProt P05067); assay: Inhibition of amyloid beta (1 to 42) (unknown origin) oligomerization assessed as reduction in intensity of experimental fluorescence plateau at 1:10 Abeta:compound ratio by thioflavin T assay based fluorescence microscopy; design: scale not given: the % may be the effect or the level left
[3] = target: Amyloid-beta precursor protein (Homo sapiens) (UniProt P05067); assay: Inhibition of amyloid beta (1 to 42) (unknown origin) oligomerization assessed as fold change in half-life of aggregation extension/reduction at 1:1 Abeta:compound ratio by thioflavin T assay based fluorescence microscopy
[4] = target: Amyloid-beta precursor protein (Homo sapiens) (UniProt P05067); assay: Inhibition of amyloid beta (1 to 42) (unknown origin) oligomerization assessed as reduction in intensity of experimental fluorescence plateau at 1:1 Abeta:compound ratio by thioflavin T assay based fluorescence microscopy
[5] = target: Amyloid-beta precursor protein (Homo sapiens) (UniProt P05067); assay: Inhibition of amyloid beta (1 to 42) (unknown origin) oligomerization assessed as increase in intensity of experimental fluorescence plateau at 1:10 Abeta:compound ratio by thioflavin T assay based fluorescence microscopy; design: scale not given: the % may be the effect or the level left
[6] = target: Amyloid-beta precursor protein (Homo sapiens) (UniProt P05067); assay: Inhibition of amyloid beta (1 to 42) (unknown origin) fibril formation at 100 uM after 4 to 24 hrs by transmission electron microscopy
[7] = target: Amyloid-beta precursor protein (Homo sapiens) (UniProt P05067); assay: Inhibition of amyloid beta (1 to 42) (unknown origin) oligomer formation at 1:1 Abeta:compound ratio after 4 to 6 hrs by capillary electrophoresis
[8] = target: Amyloid-beta precursor protein (Homo sapiens) (UniProt P05067); assay: Inhibition of amyloid beta (1 to 42) (unknown origin) oligomer formation at 1:2 Abeta:compound ratio after 4 to 6 hrs by capillary electrophoresis
[9] = target: Amyloid-beta precursor protein (Homo sapiens) (UniProt P05067); assay: Inhibition of amyloid beta (1 to 42) (unknown origin) oligomer formation at 1:10 Abeta:compound ratio after 4 to 6 hrs by capillary electrophoresis
[10] = target: Amyloid-beta precursor protein (Homo sapiens) (UniProt P05067); assay: Inhibition of amyloid beta (1 to 42) (unknown origin) oligomerization assessed as fold change in half-life of aggregation extension/reduction at 1:5 Abeta:compound ratio by thioflavin T assay based fluorescence microscopy
[11] = target: Amyloid-beta precursor protein (Homo sapiens) (UniProt P05067); assay: Inhibition of amyloid beta (1 to 42) (unknown origin) oligomerization assessed as reduction in intensity of experimental fluorescence plateau at 1:5 Abeta:compound ratio by thioflavin T assay based fluorescence microscopy; design: scale not given: the % may be the effect or the level left
[12] = target: Amyloid-beta precursor protein (Homo sapiens) (UniProt P05067); assay: Inhibition of amyloid beta (1 to 42) (unknown origin) oligomer formation at 100 uM after 4 to 6 hrs by capillary electrophoresis
[13] = target: Amyloid-beta precursor protein (Homo sapiens) (UniProt P05067); assay: Inhibition of amyloid beta (1 to 42) (unknown origin) oligomer formation assessed as monomer stabilization at 100 uM after 4 to 6 hrs by capillary electrophoresis

Sequence of Amyloid-beta precursor protein (Homo sapiens) (P05067 whole entry): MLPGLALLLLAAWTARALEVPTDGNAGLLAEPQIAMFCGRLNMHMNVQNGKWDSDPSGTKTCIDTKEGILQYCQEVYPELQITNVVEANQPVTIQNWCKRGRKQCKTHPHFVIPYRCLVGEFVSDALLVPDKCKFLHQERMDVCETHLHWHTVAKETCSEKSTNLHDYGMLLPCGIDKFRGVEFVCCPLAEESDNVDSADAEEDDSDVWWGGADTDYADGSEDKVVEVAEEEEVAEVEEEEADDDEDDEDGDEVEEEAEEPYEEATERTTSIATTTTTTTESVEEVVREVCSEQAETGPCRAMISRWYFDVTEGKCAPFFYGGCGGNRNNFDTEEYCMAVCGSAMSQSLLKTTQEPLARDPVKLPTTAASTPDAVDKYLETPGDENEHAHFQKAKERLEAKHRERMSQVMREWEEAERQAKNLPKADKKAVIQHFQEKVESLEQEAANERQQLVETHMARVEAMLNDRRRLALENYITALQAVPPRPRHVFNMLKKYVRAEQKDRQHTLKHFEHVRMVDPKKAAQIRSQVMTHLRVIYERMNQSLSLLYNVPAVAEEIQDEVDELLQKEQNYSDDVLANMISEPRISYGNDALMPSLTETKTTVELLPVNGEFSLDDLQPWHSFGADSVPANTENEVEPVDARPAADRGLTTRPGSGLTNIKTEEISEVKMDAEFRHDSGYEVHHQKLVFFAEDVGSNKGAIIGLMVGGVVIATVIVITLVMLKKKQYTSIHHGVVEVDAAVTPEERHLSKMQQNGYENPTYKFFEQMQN

Compound | fold change (FC) [1] | Activity [2] | fold change in aggregation half-life [3] | inhibition [4] | Activity [5] | inhibition [6] | inhibition [7] | inhibition [8] | inhibition [9] | fold change (FC) [10] | Activity [11] | inhibition [12] | inhibition [13]
COC(=O)[C@H](CC(C)C)NC(=O)[C@@H](NC(=O)CCOC[C@H]1OC(O)[C@H](O)[C@@H](O)[C@@H]1O)C(C)C (stereo partly drawn) | inactive | inactive | inactive | inactive |  |  |  |  |  |  |  |  | 
COC(=O)[C@H](CC(C)C)NC(=O)[C@@H](NC(=O)CCOC[C@H]1OC(O)[C@H](OCc2ccccc2)[C@@H](OCc2ccccc2)[C@@H]1OCc1ccccc1)C(C)C (stereo partly drawn) | 0.8 |  | inactive | inactive | 14% |  |  |  |  |  |  |  | 
COC(=O)[C@H](CC(C)C)NC(=O)[C@@H](NC(=O)CCOC[C@H]1O[C@@H](OCCCNC(=O)[C@@H](NC(=O)[C@H](C)NC(=O)OC(C)(C)C)C(C)C)[C@H](OC(C)=O)[C@@H](OC(C)=O)[C@@H]1OC(C)=O)C(C)C | inactive | inactive | inactive | inactive |  |  |  |  |  |  |  |  | 
COC(=O)[C@H](CC(C)C)NC(=O)[C@@H](NC(=O)CCOC[C@H]1O[C@@H](OCCCNC(=O)[C@@H](NC(=O)[C@H](C)NC(=O)OC(C)(C)C)C(C)C)[C@H](OCc2ccccc2)[C@@H](OCc2ccccc2)[C@@H]1OCc1ccccc1)C(C)C | 0.7 |  | inactive | inactive | 27% | Active | inactive | Active |  |  |  |  | 
COC(=O)[C@H](CC(C)C)NC(=O)[C@@H](NC(=O)CCOC[C@H]1O[C@@H](OCCNC(=O)[C@@H](NC(=O)[C@H](C)NC(=O)OC(C)(C)C)C(C)C)[C@H](OCc2ccccc2)[C@@H](OCc2ccccc2)[C@@H]1OCc1ccccc1)C(C)C | 0.8 |  | inactive | inactive | 38% |  |  |  |  |  |  |  | 
COC(=O)[C@H](CC(C)C)NC(=O)[C@@H](NC(=O)CCOC[C@H]1O[C@H](OCCNC(=O)[C@@H](NC(=O)[C@H](C)NC(=O)OC(C)(C)C)C(C)C)[C@H](OC(C)=O)[C@@H](OC(C)=O)[C@@H]1OC(C)=O)C(C)C | inactive | inactive | inactive | inactive |  |  |  |  |  |  |  |  | 
OC[C@H]1OC(O)[C@H](O)[C@@H](O)[C@@H]1O (stereo partly drawn) | inactive | inactive | inactive | inactive |  |  |  |  |  |  |  |  | 
COC(=O)[C@H](CC(C)C)NC(=O)[C@@H](NC(=O)CCOC[C@H]1O[C@@H](OCCCNC(=O)[C@@H](NC(=O)[C@H](C)NC(=O)OC(C)(C)C)C(C)C)[C@H](O)[C@@H](O)[C@@H]1O)C(C)C (Boc-AV[X1]VL-OMe) | 1.9 | 37% | inactive | inactive |  | inactive | inactive |  | inactive |  |  |  | 
COC(=O)[C@H](CC(C)C)NC(=O)[C@@H](NC(=O)CCOC[C@H]1O[C@@H](OCCNC(=O)[C@@H](NC(=O)[C@H](C)NC(=O)OC(C)(C)C)C(C)C)[C@H](O)[C@@H](O)[C@@H]1O)C(C)C (Boc-AV[X2]VL-OMe) | 1.8 | 29% | inactive | inactive |  |  |  |  |  |  |  |  | 
COC(=O)[C@H](CC(C)C)NC(=O)[C@@H](NC(=O)CCOC[C@H]1O[C@H](OCCNC(=O)[C@@H](NC(=O)[C@H](C)NC(=O)OC(C)(C)C)C(C)C)[C@H](O)[C@@H](O)[C@@H]1O)C(C)C (Boc-AV[X3]VL-OMe) | inactive | inactive | inactive | inactive |  |  |  |  |  |  |  |  | 
COC(=O)[C@H](CC(C)C)NC(=O)[C@@H](NC(=O)CCOC[C@H]1O[C@H](OCCCNC(=O)[C@@H](NC(=O)[C@H](C)NC(=O)OC(C)(C)C)C(C)C)[C@H](O)[C@@H](O)[C@@H]1O)C(C)C (Boc-AV[X4]VL-OMe) | inactive | inactive | inactive | inactive |  |  |  |  |  |  |  |  | 
COC(=O)[C@H](CC(C)C)NC(=O)[C@@H](NC(=O)OC(C)(C)C)C(C)C (Boc-Val-Leu-OMe) | inactive | inactive | inactive | inactive |  |  |  |  |  |  |  |  | 
COC(=O)[C@H](CC(C)C)NC(=O)[C@@H](NC(=O)CCOC[C@H]1O[C@@H](OCCCNC(=O)[C@@H](NC(=O)[C@H](C)N)C(C)C)[C@H](O)[C@@H](O)[C@@H]1O)C(C)C (H-AV[X1]VL-OMe) | 2.8 | 56% | inactive | inactive |  | Active | Active |  | Active | 2.1 | 40% | Active | Active
COC(=O)[C@H](CC(C)C)NC(=O)[C@@H](NC(=O)CCOC[C@H]1O[C@@H](OCCNC(=O)[C@@H](NC(=O)[C@H](C)N)C(C)C)[C@H](O)[C@@H](O)[C@@H]1O)C(C)C (H-AV[X2]VL-OMe) | inactive | inactive | inactive | inactive |  |  |  |  |  |  |  |  | 
COC(=O)[C@H](CC(C)C)NC(=O)[C@@H](N)C(C)C (H-Val-Leu-OMe) | inactive | inactive | inactive | inactive |  |  |  |  |  |  |  |  | 
